As a reminder, the fraction unbound is free concentration divided by total concentration. Low values mean extensive binding, high ones weak binding. Usually AUC(0-inf) stands for total exposure, with the tail of the curve extrapolated. A low value points to low exposure. A word on the Vd: it is the apparent volume that relates the amount in the body to the concentration in plasma or blood. Higher therefore signals extensive tissue distribution. A word on the clearance: it is the volume of plasma or blood freed of the substance per unit of time. Higher therefore signals a high capacity for elimination. Broadly, the half-life is the time needed for the level to fall by half in the phase considered. A high value points to slow loss. The term Cmax denotes the highest concentration seen after dosing. One may read the bioavailability as the share of a dose that reaches the circulation, judged against a reference dose that is usually intravenous. A high value points to much systemic uptake.

Molecules are shown by their SMILES.

One molecule from US20230357248A1, “PYRROLOPYRIMIDINE COMPOUND AS BTK INHIBITOR AND USE THEREOF” (MEDSHINE DISCOVERY INC., priority 2019, published 2023) can be followed below.

The subject of data set [1] is xenograft tumor of human diffuse large B lymphoma TMD8. The data set can be described thus: Xenograft tumor model of TMD8 in SCID mouse. The format is in vivo. Here is the method: Xenograft tumor model of TMD8 in SCID mouse:
Assay method: A tumor model of subcutaneously transplanted human diffuse large B lymphoma in mice was established. Tumor cells in logarithmic growth phase were collected, counted, and then resuspended in RPMI1640. The cell suspension was adjusted to a concentration of 4×10^7/mL, and mixed well with Matrigel (1:1). Tumor cells were inoculated subcutaneously on the right back of the mouse with a 1 mL syringe ([…]), 4×10^6 cells/mouse. When the animal tumor reached about 100-300 mm^3, the tumor-bearing mice were randomly divided into 6 groups according to the size of the tumor volume, with 6 mice in each group. On the day of the assay, the animals were administered the corresponding drugs according to the corresponding groups. The first group G1 was set as a negative control group, which was administered 10% NMP/60% PEG400/30% H2O by gavage alone. The second group G2 was set as a positive control group, which was given reference example 1 (compound 005-1) at a dose of 30 mg/kg. The third group G3 was given compound 4 at a dose of 30 mg/kg, once a day, for a total of 15 days.
During the assay, animal weight and tumor size were measured 3 times a week, and clinical symptoms of animals were observed and recorded every day. Each dosing was referenced to the most recent animal weight.
For tumor measurement, length (a) and width (b) were measured with digital vernier calipers, and the calculation formula for tumor volume (TV) was: TV=a×b^2/2.

Data set [2] can be described thus: Plasma protein binding (PPB) assay, M. The format is in vitro ADME. Conditions: mouse, dialysis 4 hr 37° C. The method, then: (§1) Assay procedure: 995 μL of blank plasma of various genera were weighed, and 5 μL of assay compound working solution (400 μM) or warfarin working solution (400 μM) was added so that the final concentrations of the assay compound and warfarin in plasma sample were each 2 μM. The samples were mixed thoroughly. The final concentration of DMSO (the organic phase) was 0.5%. 50 μL of the plasma samples of the assay compound and warfarin were pipetted to a sample receiving plate (in triplicate), and the corresponding volume of corresponding blank plasma or buffer was added immediately, so that the final volume in each sample well was 100 μL, wherein the volume ratio of plasma:dialysis buffer was 1:1. 500 μL of stop solution was then added to these samples. These samples were used as T0 samples for determination of recovery and stability. […] All samples were subjected to protein precipitation, and then analyzed by LC/MS/MS. Bound rate and recovery rate of protein were calculated using the following formulae: % Unbound=100*F/T, % Bound=100−% Unbound, % Recovery=100*(F+T)/T0 (wherein F is the peak area ratio of the compound in the dialysate after 4 h of dialysis; T is the peak area ratio of the compound in the plasma after 4 h of dialysis; To is the peak area ratio of the compound in the plasma sample at time zero).

Data set [3] in a line: Pharmacokinetic evaluation in SD rat (intravenous). In kind it is in vivo. Conditions: about 0.5 mg/kg. Here is the method: Assay purpose: To assay the pharmacokinetics of the compound in SD rat (intravenous)
Pharmacokinetic study of oral and intravenously injected compound 4 and reference example 1 in SD rat.
Compound 4 and reference example 1 were mixed with the solvent (10% NMP/60% PEG400/30% H2O). The mixture was vortexed and sonicated to prepare a clarified solution of 0.5 mg/mL. […] Whole blood was collected for a certain period of time to prepare the plasma. Drug concentration was analyzed by LC-MS/MS, and pharmacokinetic parameters were calculated by Phoenix WinNonlin software (Pharsight, USA).

Data set [4] is described as follows: Plasma protein binding (PPB) assay, D. In kind it is in vitro ADME. Conditions: dog, dialysis 4 hr 37° C. Here is the method:
as §1

Data set [5] is described as follows: Pharmacokinetic evaluation in CD-1 mouse (oral). The format is in vivo. To be noted: 3.1 mg/kg. Here is the method: Assay purpose: To assay the pharmacokinetics of the compound in CD-1 mouse (oral)
Pharmacokinetic study of oral and intravenously injected compound 4 and reference example 1 (compound 005-1) in CD-1 mouse.
Compound 4 and reference example 1 (compound 005-1) were mixed with the solvent (10% NMP/60% PEG400/30% H2O). The mixture was vortexed and sonicated to prepare a clarified solution of 0.6 mg/mL. 7- to 10-week old CD-1 male mice were selected, and the candidate compound solution was administered […] at a dose of 3.1 mg/kg.
Whole blood was collected for a certain period of time to prepare the plasma. Drug concentration was analyzed by LC-MS/MS, and pharmacokinetic parameters were calculated by Phoenix WinNonlin software (Pharsight, USA).

[6] abbreviates: TMD8 xenograft in SCID mouse, 30 mg/kg PO, QD × 15, 14th day.

For `CO[C@@H]1C[C@@H](CO)OC[C@@H]1Nc1ncnc2[nH]cc(C(=O)c3ccc(Oc4ccccc4)cc3Cl)c12` [Compound 4], the “inhibitory effect on xenograft tumor of human diffuse large B lymphoma TMD8 in mouse (in words)” value in data set [1] (30 mg/kg once a day) is reported as “a certain inhibitory effect”. For the same molecule, the “relative tumor proliferation rate T/C” value in data set [1] (5th day, 30 mg/kg once a day) amounted to 66.33%. For the same molecule, in data set [1] (14th day, 30 mg/kg once a day), the “relative tumor proliferation rate” value worked out at 21.53% and the “tumor volume inhibition rate TGI (%)” value came to 79.04%. In data set [1] (setting [6]), the “Tumor volume inhibition rate TGI” value is 79.04% and the “relative tumor proliferation rate T/C” value is reported as 21.53%. In addition, the unbound share (fraction unbound) at 4 h, 2 μM in data set [2] is 0.004. For the same molecule, in data set [3] (AUCu = AUC0-inf * Unbound PPB (in vivo assay of PPB in rat)), the AUCu stood at 0.0034 µM·h. Besides, in data set [3] (male, plasma), the AUC(0-inf) turned out to be 1.7 µM·h, the C0 came to 852 nM, the Vd was 1.42 L/kg and the clearance was determined as 9.8 mL/min/kg. The molecule also gave a half-life in data set [3] (male, plasma) of 1.82 h. The molecule also displayed a free fraction (fraction unbound) at 4 h, 2 μM in data set [4] of 0.001. For the same molecule, in data set [5] (AUCu = AUC0-inf * Unbound PPB (Mouse)), the AUCu was found to be 0.133 µM·h. For the same molecule, in data set [5] (male, plasma), the area under the curve AUC(0-inf) worked out at 33.2 µM·h, the peak concentration (Cmax) is 2980 nM, the bioavailability was 71.7% and the half-life was 3.73 h.
